# Measurements as given in PMC6151550, “Inhibitory Effect of Selaginellins from Selaginella tamariscina (Beauv.) Spring against Cytochrome P450 and Uridine 5′-Diphosphoglucuronosyltransferase Isoforms on Human Liver Microsomes” (Molecules : A Journal of Synthetic Chemistry and Natural …, 2017).
# Like-named read-outs stand apart in the source and are kept apart here.
# What was measured:
# Assay type in all cases: in vitro ADME
# UGT2B7 = target: T1, UGT2B7 (Homo sapiens, UniProt P16662); experiment: UGT2B7 inhibition (naloxone glucuronidation) in human liver microsomes, cocktail LC-MS/MS
# T1 construct: from tissue; host or cells: human liver microsomes
# T1 sequence (P16662 24-529): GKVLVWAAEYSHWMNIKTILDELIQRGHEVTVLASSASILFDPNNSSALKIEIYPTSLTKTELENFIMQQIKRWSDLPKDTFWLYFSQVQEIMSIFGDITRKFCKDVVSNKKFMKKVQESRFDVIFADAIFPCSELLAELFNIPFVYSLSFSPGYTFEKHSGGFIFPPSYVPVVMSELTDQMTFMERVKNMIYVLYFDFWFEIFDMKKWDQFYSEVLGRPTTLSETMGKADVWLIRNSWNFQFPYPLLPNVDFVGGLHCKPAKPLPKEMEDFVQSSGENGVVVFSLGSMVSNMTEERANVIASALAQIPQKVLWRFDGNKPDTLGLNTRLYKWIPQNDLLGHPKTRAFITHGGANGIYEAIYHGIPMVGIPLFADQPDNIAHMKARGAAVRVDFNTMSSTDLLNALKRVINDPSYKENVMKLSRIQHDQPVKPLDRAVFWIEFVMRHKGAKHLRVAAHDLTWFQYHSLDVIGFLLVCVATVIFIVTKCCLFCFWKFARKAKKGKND
# Experimental: (§1) The inhibitory effects of two selaginellins on the metabolism of six UGT probe substrates were evaluated using previously reported method with minor modification. In brief, HLMs (0.25 mg/mL) were activated by incubation in the presence of alamethicin (25 μg/mL) for 15 min on ice. After the addition of UGT isoform-selective substrates and selaginellins (0, 0.5, 2, 5, 20 and 50 μM) the final concentrations of organic solvent (methanol) for the cocktail incubation conditions were 1.0% (v/v). The incubation reaction mixtures were pre-incubated for 5 min. The reaction was initiated by the addition of 5 mM UDPGA and further incubated for 60 min. All reactions were terminated by adding ice-cold acetonitrile containing estrone glucuronide (IS). After mixing and centrifugation, aliquots were injected into a LC-MS/MS as described previously (Table 2). All microsomal incubations were performed in triplicate.
# (§2) The IC50 values (concentration of the inhibitor causing 50% inhibition of the original enzyme activity) were calculated using WinNonlin software (Pharsight, Mountain View, CA, USA): percentage of control activity = 100 × [1 − (I/(I + IC50))], where I is the inhibitor concentration, and IC50 is the inflection point on the curve.
# UGT1A1 = target: T2, UGT1A1 (Homo sapiens, UniProt P22309); experiment: UGT1A1 inhibition (SN-38 glucuronidation) in human liver microsomes, cocktail LC-MS/MS; settings: IC50 UGT isoform 1A1, HLMs 0.25 mg/mL with alamethicin, SN-38 0.5 μM
# T2 construct: from tissue; host or cells: human liver microsomes
# T2 sequence (P22309 26-533): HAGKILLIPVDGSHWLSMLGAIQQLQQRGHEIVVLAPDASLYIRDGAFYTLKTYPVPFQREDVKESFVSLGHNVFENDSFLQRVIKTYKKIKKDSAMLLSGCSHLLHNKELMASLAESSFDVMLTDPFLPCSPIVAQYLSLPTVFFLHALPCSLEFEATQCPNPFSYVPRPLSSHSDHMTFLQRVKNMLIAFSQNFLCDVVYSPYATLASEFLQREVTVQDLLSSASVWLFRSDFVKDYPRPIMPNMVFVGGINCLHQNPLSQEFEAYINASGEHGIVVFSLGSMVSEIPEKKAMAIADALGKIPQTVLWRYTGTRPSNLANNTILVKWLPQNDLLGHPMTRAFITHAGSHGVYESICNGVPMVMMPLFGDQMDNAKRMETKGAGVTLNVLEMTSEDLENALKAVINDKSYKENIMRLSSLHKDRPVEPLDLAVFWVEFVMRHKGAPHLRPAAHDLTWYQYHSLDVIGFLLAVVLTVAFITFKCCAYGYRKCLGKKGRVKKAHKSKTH
# Experimental: as §1, §2
# CYP2D6 = target: T3, CYP2D6 (Homo sapiens, UniProt P10635); experiment: CYP2D6 inhibition (dextromethorphan O-demethylase) in human liver microsomes, substrate cocktail LC-MS/MS
# T3 construct: the incubation mixtures containing pooled HLMs (0.25 mg/mL, H2630, Xenotech); tissue Xenotech H2630; host or cells: pooled human liver microsomes
# Experimental: (§3) The inhibitory effects of two selaginellins on the metabolism of ten P450 probe substrates were evaluated using previously reported method with minor modification. Phenacetin O-deethylase, coumarin 7-hydroxylase, bupropion 4-hydroxylase, amodiaquine N-deethylase, tolbutamide 4-hydroxylase, omeprazole 5-hydroxylase, dextromethorphan O-demethylase, chlorzoxazone 6-hydroxylase and midazolam 1′-hydroxylase activities were determined as probe activities for CYP1A2, CYP2A6, CYP2B6, CYP2C8, CYP2C9, CYP2C19, CYP2D6, CYP2E1 and […], respectively, using substrate cocktail incubation and tandem mass spectrometry (Table 2). Selaginellins were dissolved in methanol. The final concentrations of organic solvent (methanol) for the cocktail incubation conditions in all experiments were 1.0% (v/v). In brief, the incubation mixtures containing pooled HLMs (0.25 mg/mL, H2630, Xenotech), P450 probe substrate cocktail, and inhibitor (0, 0.5, 2, 5, 20 and 50 μM) were preincubated at 37 °C for 5 min. […] After mixing and centrifugation, aliquots were analyzed by liquid chromatography-tandem mass spectrometry (LC-MS/MS) as previous described. The CYP2J2 inhibitory effects of two selaginellins were also evaluated in pooled HLMs using previously reported method. […]
# CYP3A = CYP3A inhibition (midazolam 1'-hydroxylase) in human liver microsomes, substrate cocktail LC-MS/MS
# Experimental: as §3
# CYP2E1 = target: T4, CYP2E1 (Homo sapiens, UniProt P05181); experiment: CYP2E1 inhibition (chlorzoxazone 6-hydroxylase) in human liver microsomes, substrate cocktail LC-MS/MS
# T4 construct: the incubation mixtures containing pooled HLMs (0.25 mg/mL, H2630, Xenotech); tissue Xenotech H2630; host or cells: pooled human liver microsomes
# Experimental: as §3
# T3 sequence (P10635 whole entry): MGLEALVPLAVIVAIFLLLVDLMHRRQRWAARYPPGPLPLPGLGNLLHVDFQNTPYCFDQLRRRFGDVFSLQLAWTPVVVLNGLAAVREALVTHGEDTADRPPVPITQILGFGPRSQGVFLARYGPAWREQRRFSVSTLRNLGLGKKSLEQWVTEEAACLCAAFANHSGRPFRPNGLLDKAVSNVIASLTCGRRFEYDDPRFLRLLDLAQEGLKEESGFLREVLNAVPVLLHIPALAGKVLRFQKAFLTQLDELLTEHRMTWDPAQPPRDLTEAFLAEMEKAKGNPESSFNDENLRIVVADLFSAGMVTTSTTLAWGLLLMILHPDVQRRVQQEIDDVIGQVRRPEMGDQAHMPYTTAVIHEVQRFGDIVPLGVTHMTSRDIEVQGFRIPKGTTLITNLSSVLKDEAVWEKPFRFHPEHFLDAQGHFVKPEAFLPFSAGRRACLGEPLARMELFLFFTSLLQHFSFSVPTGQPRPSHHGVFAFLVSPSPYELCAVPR
# T4 sequence (P05181 whole entry): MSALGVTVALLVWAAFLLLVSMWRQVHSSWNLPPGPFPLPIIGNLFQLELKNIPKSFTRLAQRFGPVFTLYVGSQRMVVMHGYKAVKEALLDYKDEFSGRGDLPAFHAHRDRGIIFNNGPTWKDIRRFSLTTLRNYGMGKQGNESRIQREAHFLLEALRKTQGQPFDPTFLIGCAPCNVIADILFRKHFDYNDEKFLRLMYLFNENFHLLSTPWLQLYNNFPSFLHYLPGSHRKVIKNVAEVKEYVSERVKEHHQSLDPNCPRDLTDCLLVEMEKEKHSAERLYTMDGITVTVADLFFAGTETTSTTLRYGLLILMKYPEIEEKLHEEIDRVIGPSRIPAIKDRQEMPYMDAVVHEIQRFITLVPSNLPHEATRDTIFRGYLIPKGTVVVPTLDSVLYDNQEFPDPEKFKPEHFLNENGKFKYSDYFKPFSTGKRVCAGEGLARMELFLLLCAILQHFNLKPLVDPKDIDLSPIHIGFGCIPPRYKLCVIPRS
IC50 at 15 min (CYP3A),SMILES,IC50 (UGT2B7),IC50 (UGT1A1),IC50 (CYP2D6),IC50 (CYP2E1),"IC50 at 15 min (CYP3A; pooled HLMs 0.25 mg/mL, midazolam 5.0 μM, read-out: IC50 P450 isoform 3A)"
> 50 µM,COc1ccc(C(=C2C=CC(=O)C=C2)c2c(-c3ccc(O)cc3)ccc(CO)c2C#Cc2ccc(O)cc2)cc1 [Selaginellin M],10.4 µM,1.3 µM,6.8 µM,> 50 µM,
,O=C1C=CC(=C(c2ccc(O)cc2)c2c(-c3ccc(O)cc3)ccc(CO)c2C#Cc2ccc(O)cc2)C=C1 [Selaginellin],15.6 µM,1 µM,5.8 µM,38.5 µM,11.7 µM
